Series [1] relates to rats treated with tacrolimus. Put plainly: Blood glucose in rats co-administered with tacrolimus. The settings on record: tacrolimus 0.5 mg/kg i.p. day 1-25; Compound 2 114 mg/kg i.p. day 11-25. It counts as in vivo.
Series [2] concerns rats treated with tacrolimus. Put plainly: Renal pathology in rats co-administered with tacrolimus. It counts as in vivo. The settings on record: tacrolimus 0.5 mg/kg with vehicle or with Compound 2 at 11, 28 and 114 mg/kg, 25 days. The procedure:
Tissue is removed from the kidney of rats treated with tacrolimus (Prograf®) at 0.5 mg/kg and inert vehicle, and from rats treated with tacrolimus (Prograf®) at 0.5 mg/kg and quercetin-3′-O-methylphosphonate (Compound 2) at 11 mg/kg, 28 mg/kg, and at 114 mg/kg for 25 days. […] The tissue from rats treated with Compound 2 and tacrolimus show no vacuoles.

In a further series the target is T1, AdenosineA1 (Homo sapiens, UniProt P30542).
T1 sequence (P30542 1-326): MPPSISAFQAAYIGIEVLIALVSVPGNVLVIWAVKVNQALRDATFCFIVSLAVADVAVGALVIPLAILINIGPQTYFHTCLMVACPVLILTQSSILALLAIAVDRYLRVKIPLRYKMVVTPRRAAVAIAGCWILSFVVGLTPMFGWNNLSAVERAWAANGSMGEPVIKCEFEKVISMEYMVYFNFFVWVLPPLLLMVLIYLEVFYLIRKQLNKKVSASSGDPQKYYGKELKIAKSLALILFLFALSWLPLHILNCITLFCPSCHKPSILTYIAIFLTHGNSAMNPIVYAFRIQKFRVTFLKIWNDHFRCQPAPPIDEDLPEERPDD
Put plainly: AdenosineA1 GTPγS functional assay. It is filed as biochemical. The settings on record: 10 μM; compound may be / can be tested. The procedure:
The compound is additionally tested in AdenosineA1, AdrenergicA2A, DopamineD25, Histamine H1-, and μ-Opiate GTPγS functional assays using a concentration of 10 μM.
The compound may be additionally tested in AdenosineA1, AdrenergicA2A, DopamineD25, Histamine H1-, and μ-Opiate GTPγS functional assays using a concentration of 10 μM.
The compound can be additionally tested in AdenosineA1, AdrenergicA2A, DopamineD25, Histamine H1-, and μ-Opiate GTPγS functional assays using a concentration of 10 μM.

For the compound `O=c1c(O)c(-c2ccc(O)c(OCP(=O)(O)O)c2)oc2cc(O)cc(O)c12` [Compound 2, Quercetin-3′-O-methylphosphonic acid], the “blood glucose level (tacrolimus induced hyperglycemia)” value in series [1] is listed as “attenuate tacrolimus induced hyperglycemia”. Also, in series [2], the “vacuolation of kidney tissue” value is on record as “no vacuoles”. The “antagonist activity in the AdenosineA1 assay” value at AdenosineA1 is listed as 48%.

These data come from patent US20100297020A1, “PHOSPHORYLATED AND PHOSPHONATED PYRONE ANALOGS FOR THERAPEUTIC TREATMENT” (Limerick Biopharma, Inc., priority 2008, published 2010).
